Measurements taken from patent publication EP0608419A1, “TRANSOCULAR PREPARATION” (FUJISAWA PHARMACEUTICAL CO., LTD., priority 1991, dated 1993).
Where two headings read alike, the source gives them in different places.

How the values were obtained:
[1] = Concentration of test compound in eye tissue and blood after transocular administration of ophthalmic solution (EIA); assay type: in vivo, JW (clean) strain female rabbits; details: topical or ocular, read-out: Mean concentration in tissue ± S.E.
Experimental: The resultant preparation was filled in an instillator.
(§1) c The experiment was carried out using JW (clean) strain female rabbits (body weight: 2.3 to 2.6 kg), each test group containing three rabbits. In this experiment, the rabbits were allowed to feed themselves and drink water freely both before and after each administration.
In case of transocular administration of ophthalmic solution, the rabbits were fixed on the cangue fixer and applied to each eye with one drop (about 0.05 ml) of the above ophthalmic solution using an instillator. The administration was repeated five times at 5-minute intervals. After the final administration, the rabbits were brought back to their cage. In these administrations, total dosage was 1 mg/rabbit. At 30 minutes after the final administration, blood was collected from the ear vein of the rabbits. Immediately, the rabbits were anesthetized by injection of "Nembutal" (Trademark) into the ear vein to bleed to death by cutting off their head and then the eyeballs were taken out therefrom.
(§2) The eyeballs taken out were washed with physiological saline solution under ice-cooling, and subsequently divided into various parts (i.e. cornea, aqueous humor in anterior chamber of eye, iris, lens, vitreum, retinochoroid and sclera). After measuring the weight of each part, phosphate buffer solution (pH 7.4) was added thereto and then the parts were homogenized using a glass-made "Potter-type homogenizer" (Trademark).
(§3) The determination of a concentration of the test compound in each sample was carried out by the two-step Enzyme-linked immunosorbent assay (EIA) using purified polyclonal antibody against the test compound.

[2] = Concentration of test compound in eye tissue and blood after continuous subcutaneous administration by implanted mini-pump (EIA); assay type: in vivo, JW (clean) strain female rabbits; details: sc, 2.5 mg/animal/day, read-out: Mean concentration in tissue ± S.E.
Experimental: as §1
On the other hand, in case of continuous subcutaneous administration, after the rabbits were anesthetized by injection of "Nembutal" (Trademark, 0.5 to 0.6 ml/kg i.v.), they were clipped their back side hair and then were incised their clipped parts about 3 cm long with a surgical knife. […] Subsequently, the incised parts of the rabbits were sutured with silk thread, and then the rabbits were brought back to their cage. In this case, total dosage was 2.5 mg/rabbit/day. The day when the mini-pump was implanted was defined as "Day 0". On Day 5, the rabbits were anesthetized by injection of "Nembutal" (Trademark) into the ear vein to bleed to death, and then the eyeballs were taken out therefrom. In this experiment, blood was collected for measuring a concentration of the test compound in blood on each Day 1, 4 and 5.
as §2, §3

[3] = system: intraocular vascularization; assay: Suppression of induced intraocular vascularization (cupric chloride pellet and aminoadipic acid) by eye drops, histological observation; assay type: in vivo, rabbits (Dutch); details: 2 mg/ml in isotonic phosphate buffer solution (pH 8), eye drops twice a day for 12 days; both eyes of five rabbits
Experimental: Both eyes of five rabbits (Dutch) were used for this experiment. Into the vitreum of the rabbits, 0.2 ml of sterilized air was injected. […] At the same time as transplantation, 1 mg of aminoadipic acid dissolved in 0.2 ml of physiological saline solution was injected into the vitreum, by which vascularization in the eyes (i.e. in the vitreum) was induced. Twenty-four hours later, isotonic phosphate buffer solution (pH 8, 2 mg/ml) which contained the same test compound used in Example 1 was administered drop by drop to each rabbit. The same administration was repeated twice a day for consecutive 12 days. After the final administration on the 12th day, the eyeballs were taken out therefrom and observed histologically to find whether the vascularization was suppressed or not.

- concentration at 0.5 h ([1]; Aqueous humor in anterior chamber of eye, 30 min. after transocular administration of ophthalmic solution (total 1 mg/rabbit), n = 6): 141 ± 59.7 ng/g
- concentration at 0.5 h ([1]; Cornea, 30 min. after transocular administration of ophthalmic solution (2 mg/ml, total 1 mg/rabbit), n = 6): 1.56 ± 0.73 ng/g
- concentration at 0.5 h ([1]; Lens, 30 min. after transocular administration of ophthalmic solution (total 1 mg/rabbit), n = 6): 12.4 ± 2.11 ng/g
- concentration at 0.5 h ([1]; Retinochoroid, 30 min. after transocular administration of ophthalmic solution (total 1 mg/rabbit), n = 6): 40.2 ± 9.4 ng/g
- concentration at 0.5 h ([1]; Sclera, 30 min. after transocular administration of ophthalmic solution (total 1 mg/rabbit), n = 6): 0.78 ± 0.78 ng/g
- concentration at 0.5 h ([1]; Vitreum, 30 min. after transocular administration of ophthalmic solution (total 1 mg/rabbit), n = 6): 9.99 ± 2.37 ng/g
- concentration at 0.5 h ([1]; Whole blood (n = 3), 30 min. after transocular administration of ophthalmic solution (total 1 mg/rabbit)): 19.6 ± 4.22 ng/g
- concentration at 120 h ([2]; Aqueous humor in anterior chamber of eye, Day 5 of continuous subcutaneous administration (2.5 mg/rabbit/day), n = 6): 0.79 ± 0.62 ng/g
- concentration at 120 h ([2]; Cornea, Day 5 of continuous subcutaneous administration (2.5 mg/rabbit/day) by mini-pump, n = 6): 2.87 ± 0.52 ng/g
- concentration at 120 h ([2]; Lens, Day 5 of continuous subcutaneous administration (2.5 mg/rabbit/day), n = 6): 0.2 ± 0.08 ng/g
- concentration at 120 h ([2]; Retinochoroid, Day 5 of continuous subcutaneous administration (2.5 mg/rabbit/day), n = 6): 0.6 ± 0.26 ng/g
- concentration at 120 h ([2]; Sclera, Day 5 of continuous subcutaneous administration (2.5 mg/rabbit/day), n = 6): 1.06 ± 0.27 ng/g
- concentration at 120 h ([2]; Vitreum, Day 5 of continuous subcutaneous administration (2.5 mg/rabbit/day), n = 6): 1.19 ± 0.23 ng/g
- concentration at 24 h ([2]; Whole blood, Day 1 (n=3), continuous subcutaneous administration (2.5 mg/rabbit/day)): 30.6 ± 6.13 ng/g
- concentration at 96 h ([2]; Whole blood, Day 4 (n=3), continuous subcutaneous administration (2.5 mg/rabbit/day)): 13.7 ± 9.74 ng/g
- concentration at 120 h ([2]; Whole blood, Day 5 (n=3), continuous subcutaneous administration (2.5 mg/rabbit/day)): 22.5 ± 4.12 ng/g
SMILES: CNC(=O)OC1CCC2(CO2)C(C2(C)OC2CC=C(C)C)C1OC (stereo not drawn) [test compound, 6-Methylcarbamoyloxy-5-methoxy-4-[2-methyl-3-(3-methyl-2-butenyl)oxiranyl]-1-oxaspiro[2.5]octane]
- eyeballs in which intraocular vascularization was suppressed thoroughly [3]: 42.9%
- eyeballs in which the vascularization was suppressed partially or thoroughly [3]: 85.7%
